Key:
Type in all cases: in vivo
[1] = system: Amaranthus retoflexus (AMARE); experiment: Post-emergence biological efficacy, glasshouse pot test; conditions: Amaranthus retroflexus, 312 h; Rate 1,000 g/ha; post-emergence spray; evaluated after 13 days (100=total damage to plant; 0=no damage to plant); read-out: Percentage damage caused to weed species, post-emergence, AMARE
Outline: (§1)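 Plants were sown in standard soil and grown 8 days in a glasshouse (24/16° C. day/night, 14 hours light, 65% humidity), then sprayed post-emergence at 1000 or 250 g/ha from acetone/water (50:50) with 0.5% Tween 20. Damage was scored visually after 13 days (0 = none, 100 = total).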

Setaria faberi (SETFA) [2] = experiment: as above; conditions: 312 h, Rate 1,000 g/ha, post-emergence spray, evaluated after 13 days (100=total damage to plant; 0=no damage to plant), read-out: Percentage damage caused to weed species, post-emergence, SETFA
Outline: as §1

Solanum nigrum (SOLNI) [3] = experiment: as above; conditions: 312 h, Rate 1,000 g/ha, post-emergence spray, evaluated after 13 days (100=total damage to plant; 0=no damage to plant), read-out: Percentage damage caused to weed species, post-emergence, SOLNI
Outline: as §1

[4] = system: Alopecurus myosuroides (ALOMY); experiment: as above; conditions: 312 h, Rate 1,000 g/ha, post-emergence spray, evaluated after 13 days (100=total damage to plant; 0=no damage to plant), read-out: Percentage damage caused to weed species, post-emergence, ALOMY
Outline: as §1

[5] = system: Ipomea hederaceae (IPOHE); experiment: as above; conditions: Ipomoea hederacea, 312 h; Rate 1,000 g/ha; post-emergence spray; evaluated after 13 days (100=total damage to plant; 0=no damage to plant); read-out: Percentage damage caused to weed species, post-emergence, IPOHE
Outline: as §1

[6] = system: Echinochloa crus-galli (ECHCG); experiment: as above; conditions: 312 h, Rate 1,000 g/ha, post-emergence spray, evaluated after 13 days (100=total damage to plant; 0=no damage to plant), read-out: Percentage damage caused to weed species, post-emergence, ECHCG
Outline: as §1

[7] = system: Amaranthus retoflexus (AMARE); experiment: Pre-emergence biological efficacy, glasshouse pot test; conditions: Amaranthus retroflexus, 312 h; pre-emergence, rate 1,000 g/ha, evaluated after 13 days (100=total damage to plant; 0=no damage); read-out: Percentage damage caused to weed species, AMARE
Outline: (§2)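 Compound was applied as a spray one day after sowing, at a final dose of 1000 or 250 g/ha. Plants grew under 14 h light, 24/16 °C and 65% humidity, and injury was assessed on day 13 on a 0–100 scale.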

Setaria faberi (SETFA) [8] = experiment: as above; conditions: 312 h, pre-emergence, rate 1,000 g/ha, evaluated after 13 days (100=total damage to plant; 0=no damage), read-out: Percentage damage caused to weed species, SETFA
Outline: as §2

Solanum nigrum (SOLNI) [9] = experiment: as above; conditions: 312 h, pre-emergence, rate 1,000 g/ha, evaluated after 13 days (100=total damage to plant; 0=no damage), read-out: Percentage damage caused to weed species, SOLNI
Outline: as §2

[10] = system: Alopecurus myosuroides (ALOMY); experiment: as above; conditions: 312 h, pre-emergence, rate 1,000 g/ha, evaluated after 13 days (100=total damage to plant; 0=no damage), read-out: Percentage damage caused to weed species, ALOMY
Outline: as §2

[11] = system: Ipomea hederaceae (IPOHE); experiment: as above; conditions: Ipomoea hederacea, 312 h; pre-emergence, rate 1,000 g/ha, evaluated after 13 days (100=total damage to plant; 0=no damage); read-out: Percentage damage caused to weed species, IPOHE
Outline: as §2

[12] = system: Echinochloa crus-galli (ECHCG); experiment: as above; conditions: 312 h, pre-emergence, rate 1,000 g/ha, evaluated after 13 days (100=total damage to plant; 0=no damage), read-out: Percentage damage caused to weed species, ECHCG
Outline: as §2

| SMILES | pest or weed control at 1000 g/ha [1] [%] | pest or weed control at 1000 g/ha (Setaria faberi (SETFA) [2]) [%] | pest or weed control at 1000 g/ha (Solanum nigrum (SOLNI) [3]) [%] | pest or weed control at 1000 g/ha [4] [%] | pest or weed control at 1000 g/ha [5] [%] | pest or weed control at 1000 g/ha [6] [%] | pest or weed control at 1000 g/ha [7] [%] | pest or weed control at 1000 g/ha (Setaria faberi (SETFA) [8]) [%] | pest or weed control at 1000 g/ha (Solanum nigrum (SOLNI) [9]) [%] | pest or weed control at 1000 g/ha [10] [%] | pest or weed control at 1000 g/ha [11] [%] | pest or weed control at 1000 g/ha [12] [%] |
| --- | --- | --- | --- | --- | --- | --- | --- | --- | --- | --- | --- | --- |
| C=CCN(Cc1ccc(F)cc1)c1nc(C2CC2)nc(C(=O)OC)c1Cl [Compound 151-66, 5-Chloro-2-cyclopropyl-4-[N-(4-fluorophenylmethyl)-N-prop-2-en-1-yl-amino]-6-methoxy-carbonylpyrimidine] | 80 | 50 | 80 | 20 | 70 | 30 | 40 | 0 | 0 | 0 | 50 | 0 |
| C=CCN(Cc1cccc(OC)c1OC)c1nc(C2CC2)nc(C(=O)OC)c1Cl [Compound 151-109, 5-Chloro-2-cyclopropyl-4-[N-(2,3-dimethoxyphenyl-methyl)-N-prop-2-en-1-yl-amino]-6-methoxycarbonyl-pyrimidine] | 30 | 0 | 30 | 0 | 30 | 0 | 60 | 10 | 20 | 0 | 20 | 0 |
| C=CCN(Cc1cc(Cl)ccc1OC)c1nc(C2CC2)nc(C(=O)OC)c1Cl [Compound 151-117, 5-Chloro-4-[N-(5-chloro-2-methoxyphenylmeth-yl)-N-prop-2-en-1-yl-amino]-2-cyclopropyl-6-methoxycarbonyl-pyrimidine] | 30 | 20 | 30 | 0 | 60 | 0 | 40 | 10 | 30 | 10 | 30 | 0 |
| C=CCN(Cc1cccs1)c1nc(C2CC2)nc(C(=O)OC)c1Cl [Compound 151-140, 5-Chloro-2-cyclopropyl-6-methoxycarbonyl-4-(N-prop-2-en-1-yl-N-thiophen-2-ylmethyl-amino)-pyrimidine] | 60 | 50 | 50 | 10 | 70 | 10 | 100 | 10 | 70 | 0 | 20 | 0 |
| C=CCN(Cc1ccc(Cl)s1)c1nc(C2CC2)nc(C(=O)OC)c1Cl [Compound 151-141, 5-Chloro-4-[N-(5-chlorothiophen-2-ylmethyl)-N-prop-2-en-1-yl-amino]-2-cyclopropyl-6-methoxycarbonyl-pyrimidine] | 40 | 60 | 40 | 10 | 70 | 10 | 50 | 0 | 0 | 10 | 40 | 0 |
| COC(=O)c1nc(C2CC2)nc(N(CC=C(C)C)Cc2ccccc2C(F)(F)F)c1Cl [Compound 152-75, 5-Chloro-2-cyclopropyl-6-methoxycarbonyl-4-[N-(3-methylbut-2-en-1-yl)-N-(2-trifluoromethyl-phenylmethyl)-amino]pyrimidine] | 50 | 10 | 60 | 10 | 60 | 0 | 80 | 40 | 20 | 20 | 80 | 10 |
| C=CCCN(Cc1ccccc1)c1nc(C2CC2)nc(C(=O)OC)c1Cl [Compound 154-60, 4-(N-But-3-enyl-N-phenylmethyl-amino)-5-chloro-2-cyclopropyl-6-methoxycarbonyl-pyrimidine] | 60 | 30 | 50 | 20 | 80 | 20 | 40 | 0 | 0 | 0 | 0 | 0 |
| COC(=O)c1nc(C2CC2)nc(N(Cc2ccccc2)Cc2ccccc2)c1Cl [Compound 155-60, 5-Chloro-2-cyclopropyl-4-dibenzylamino-6-methoxycarbonyl-pyrimidine] | 70 | 40 | 80 | 10 | 80 | 10 | 30 | 0 | 0 | 0 | 40 | 0 |
| COC(=O)c1nc(C2CC2)nc(N(Cc2ccccc2)CC(O)c2ccccc2)c1Cl (stereo not drawn) [Compound 155-257, 5-Chloro-2-cyclopropyl-4-[N-(2-hydroxy-2-phenylethyl)-N-phenylmethyl-amino]-6-methoxycarbonyl-pyrimidine] | 90 | 50 | 80 | 20 | 50 | 0 | 30 | 20 | 10 | 10 | 30 | 10 |
| COC(=O)c1nc(C2CC2)nc(N(CCO)Cc2cccnc2)c1Cl [Compound 157-156, 5-Chloro-2-cyclopropyl-4-(N-2-hydroxyethyl-N-pyrid-3-ylmethyl--amino)-6-methoxy-carbonylpyrimidine] | 40 | 0 | 40 | 0 | 40 | 0 | 40 | 0 | 20 | 0 | 40 | 0 |

— patent US20110086759A1, “CHEMICAL COMPOUNDS” (SYNGENTA CROP PROTECTION, INC., priority 2007, published 2011)
